Reference: US6083922A (priority 1997, dated 2000)
≈ marks a conversion by molar mass, not a printed value. Where “and” joins values, the source holds several entries; their conditions need not be identical. Equal values may be shown once. Read-outs that look alike come from different tables or passages of the source.

How the values were obtained:
[1] = cited from earlier work
[2] = FEV1 change following aerosol administration (Example 5); format: in vivo, human; conditions: individual subjects, 300 mg, 30 min from completion
[3] = Serum tobramycin concentrations following aerosol administration (Example 5); format: in vivo, human; conditions: for Serum Tobramycin: individual subjects
Experimental: (§1) The doses were separated by at least 2 days and not more than 5 days. Peak serum and sputum concentrations were assessed and results are seen in Tables 10 and 11.

M. tuberculosis = assay: Minimal inhibitory / bactericidal concentration of tobramycin, general statements; set-up: species or system Mycobacterium tuberculosis
[4] = format: physicochemical
[5] = system: Drug-Sensitive Strains of M. tuberculosis; assay: microbe, parasite or virus in culture; format: cell-based; conditions: Mycobacterium tuberculosis
P. aeruginosa = conditions: aerosolized 600 mg tid, cited from earlier work
[6] = Comparative characteristics of nebulizers delivering tobramycin
Text: Both ultrasonic and jet nebulizers were studied.
An in vitro comparative study evaluated a variety of commercially available jet nebulizers, including among others, the Acorn II® by Marquest, T-Updraft® by Hudson, Sidestream® by Medicaid, and Pari LC® by Pari. The PulmoAide® compressor was chosen because of its reliability and widespread use.

[7] = Randomized cross-over study of nebulizers, peak sputum tobramycin
Text: A randomized, cross-over study compared the ability of several nebulizers to deliver tobramycin by measuring peak sputum tobramycin concentrations in samples collected ten minutes after completion of the aerosol dose.

[8] = system: M. tuberculosis H37Rv(lux); assay: Killing curve assay; format: cell-based, Mycobacterium tuberculosis
[9] = Ultrasonic nebulizer delivery of tobramycin, effect of saline dilution (Example 2); conditions: for aerosolized output of tobramycin, MEAN: UltraAire, 60 mg/mL, 5 mL, 10 minutes
Experimental: This example describes testing performed to determine the effect of normal and quarter strength diluted saline on the aerosolization of tobramycin and on the amount of drug delivered over a ten-minute period.
To test output from a hand-held portable ultrasonic nebulizer, an UltraAirs by Omron was used. This ultrasonic nebulizer has a reusable medication cup that is placed over the ultrasonic crystal. […] After 10 minutes nebulization run, the cups were reweighed. The aerosolized output of tobramycin was determined from the difference between weight before and after the nebulization. Each solute was tested 14 times.

clinical = format: in vivo, human; conditions: for Sputum Tobramycin Concentrations: individual subjects, 300 mg in 5 mL 1/4 NS
Experimental: as §1

NC[C@H]1O[C@H](O[C@H]2[C@H](O)[C@@H](O[C@H]3O[C@H](CO)[C@@H](O)[C@H](N)[C@H]3O)[C@H](N)C[C@@H]2N)[C@H](N)C[C@@H]1O [tobramycin]
maximum safe concentration in the serum [1]: 8 to 10 µg/mL
recommended peak therapeutic serum concentrations [1]: 8 to 10 µg/mL
± % change FEV1 ([2]; Pari LC): -1.2% and 1.2% and -0.6% and -2% and -5%
± % change FEV1 ([2]; Sidestream): -2.2% and 0.0% and -7.6% and -1%
safety of the dosage ([3]; 300 mg aerosol, because of serum concentrations): extremely safe
serum concentrations ([3]; 300 mg in 5 mL of 60 mg/mL in 1/4 NS): < 1600 ng/mL
Serum Tobramycin ([3]; Pari LC, 300 mg in 5 mL 1/4 NS, 1 hour from completion, 60 min): 0.2 µg/mL and 0.5 µg/mL and 0.6 µg/mL and 0.8 µg/mL
Serum Tobramycin ([3]; Pari LC, 300 mg in 5 mL 1/4 NS, 2 hours from completion, 120 min): 0.3 µg/mL and 0.4 µg/mL and 0.5 µg/mL and 0.7 µg/mL
Serum Tobramycin ([3]; Pari LC, 300 mg, baseline): not detected
Serum Tobramycin ([3]; Sidestream, 300 mg in 5 mL 1/4 NS, 1 hour from completion, 60 min): 0.3 µg/mL and 0.2 µg/mL and 0.9 µg/mL and 1.2 µg/mL and 1.6 µg/mL
Serum Tobramycin ([3]; Sidestream, 300 mg in 5 mL 1/4 NS, 2 hours from completion, 120 min): 0.2 µg/mL and 0.8 µg/mL and 1.0 µg/mL
Serum Tobramycin ([3]; Sidestream, 300 mg, baseline): not detected
MBC (M. tuberculosis; Mycobacterium tuberculosis, in the lungs and sputum, read-out: concentration found to be bactericidal): ≥ 8 µg/mL
MIC (M. tuberculosis; Mycobacterium tuberculosis, read-out: lowest systemic minimal inhibitory concentration): ~8 µg/mL (≈ 17.1 µM)
MIC (M. tuberculosis; Mycobacterium tuberculosis, systemic administration, read-out: minimal inhibitory concentration which would need to be present in the systemic circulation): 800 to 1000 µg/mL (≈ 1710 to 2140 µM)
sputum concentrations providing bactericidal activity, in multiples of MIC (M. tuberculosis; toward M. tuberculosis): 10-100 times MIC
color of the solution ([4]; 60 mg/mL, 40° C., pH 7.0, after 35 days): yellowing of the solution
degradation of tobramycin ([4]; pH greater than 7.0): degradation of tobramycin occurs
MIC ([5]; H37RV, read-out: Tobramycin MIC, strain H37RV): 4 µg/mL (≈ 8.56 µM)
MIC ([5]; all tested drug sensitive strains, read-out: minimal inhibitory concentration): 4 to 8 µg/mL (≈ 8.56 to 17.1 µM)
MIC ([5]; read-out: Tobramycin MIC, strain TN675): 4 µg/mL (≈ 8.56 µM)
MIC ([5]; read-out: Tobramycin MIC, strain TN994): 4 µg/mL (≈ 8.56 µM)
MIC ([5]; read-out: Tobramycin MIC, strain TN1008): 4 µg/mL (≈ 8.56 µM)
MIC ([5]; read-out: Tobramycin MIC, strain TN1039): 4 µg/mL (≈ 8.56 µM)
MIC ([5]; read-out: Tobramycin MIC, strain TN2351): 8 µg/mL (≈ 17.1 µM)
MIC ([5]; read-out: Tobramycin MIC, strain TN2524): 4 µg/mL (≈ 8.56 µM)
MIC ([5]; read-out: Tobramycin MIC, strain TN3183): 4 µg/mL (≈ 8.56 µM)
MIC ([5]; read-out: Tobramycin MIC, strain TN3979): 4 µg/mL (≈ 8.56 µM)
MIC ([5]; read-out: Tobramycin MIC, strain TN4259): 4 µg/mL (≈ 8.56 µM)
spirometry (P. aeruginosa; 71 CF patients): improved spirometry
sputum density of P. aeruginosa (P. aeruginosa; 71 CF patients): significant reduction in sputum density of P. aeruginosa
safety and efficacy in CF patients (P. aeruginosa): both safe and efficacious
MMAD ([6]; DeVilbiss 99, 20 mg/mL in 1/2 NS): 4-5 microns
Time to Nebulize ([6]; DeVilbiss 99, 20 mg/mL in 1/2 NS, 30 mL): 10 to 12 min
Drug Dose/mL ([6]; DeVilbiss 99, 20 mg/mL in 1/2 NS, total dose 600 mg): 33 ± 1.8 mg
tobramycin delivered ([6]; DeVilbiss 99, 600 mg): 33 mg/mL
particle size ([6]; Pari LC): 4.5 μ
particle sizes ([6]; Pari LC Plus): 3.3 μ
MMAD ([6]; Pari LC, 60 mg/mL in 1/4 NS): 4-5 microns
Time to Nebulize ([6]; Pari LC, 60 mg/mL in 1/4 NS, 5 mL): 10 min
Drug Dose/mL ([6]; Pari LC, 60 mg/mL in 1/4 NS, total dose 300 mg): 29 ± 5 mg
particle size output ([6]; Sidestream): 2.2 μ
MMAD ([6]; Sidestream, 60 mg/mL in 1/4 NS): ~ 2.2 microns
Time to Nebulize ([6]; Sidestream, 60 mg/mL in 1/4 NS, 5 mL, time to sputtering of jet): ~ 13 minutes
Drug Dose/mL ([6]; Sidestream, 60 mg/mL in 1/4 NS, total dose 300 mg): 30 ± 1.8 mg
tobramycin delivered to the airways ([6]; all three nebulizers): about 30 mg/mL
time to complete nebulization of all 5 mL ([7]; Pari LC, 60 mg/mL in 1/4 NS): about ten
mass median aerodynamic diameter ([7]; Pari LC, 60 mg/mL in 5 mL 1/4 NS): about 3.3 μm
Cmax at 10 min ([7]; human, in vivo, inhaled or intranasal, 300 mg): ~679000 ng/g
time for which growth is prevented ([8]; 4 μg/mL): about eight
day at which growth is seen to be inhibited ([8]; 8 μg/mL): 7 days
day at which 2-log reduction is reached ([8]; 16 μg/mL): four
bactericidal activity compared to growth control ([8]; 1-2 μg/mL): bactericidal activity decreasing the count of M. tuberculosis
reduction of M. tuberculosis counts in vitro ([8]; 8 and 16 μg/mL): more than 2 log
activity against M. tuberculosis H37Rv in vitro ([8]; FIG. 4): potent activity
persistence of bactericidal activity ([8]; FIG. 4): continuous decrease and inhibition of M. tuberculosis growth
count of Mycobacterium tuberculosis after treatment ([8]; tobramycin 8 and 16 μg/mL, decreased from 10^6): about 10^2 CFU
amount of tobramycin delivered ([9]; 1/4 diluted saline versus full strength nondiluted saline): Higher amount of tobramycin was delivered
aerosolized output of tobramycin, MEAN ([9]; diluted 0.22% NS): 4.071
aerosolized output of tobramycin, MEAN ([9]; nondiluted 0.9% NS): 3.636
concentration at 10 min (clinical; human, sputum, inhaled or intranasal, mean, Pari LC, 300 mg, 10 min): 396000 ± 677000 ng/g
Sputum Tobramycin Concentrations (clinical; Pari LC, 10 min from completion, 10 min): 1595.9 μg/gm and 764.2 μg/gm and 133.7 μg/gm and 166.5 μg/gm and 1395.6 μg/gm
Sputum Tobramycin Concentrations (clinical; Pari LC, 1 hour, 60 min): 481.8 μg/gm and 231.8 μg/gm and 110.7 μg/gm and 32.4 μg/gm and 186.8 μg/gm
Sputum Tobramycin Concentrations (clinical; Pari LC, 2 hours, 120 min): 416.8 μg/gm and 52.8 μg/gm and 92.5 μg/gm and 60.5 μg/gm and 131.8 μg/gm
Sputum Tobramycin Concentrations (clinical; Pari LC, baseline): bql (<20 μg/gm)
Sputum Tobramycin Concentrations (clinical; Sidestream, 10 min from completion, 10 min): 792.8 μg/gm and 460.6 μg/gm and 162.5 μg/gm and 84.2 μg/gm and 1135.9 μg/gm
Sputum Tobramycin Concentrations (clinical; Sidestream, 1 hour, 60 min): 1026.7 μg/gm and 23.1 μg/gm and 180.5 μg/gm and 36.6 μg/gm and 488.2 μg/gm
Sputum Tobramycin Concentrations (clinical; Sidestream, 2 hours, 120 min): 163 μg/gm and 49.1 μg/gm and 58.1 μg/gm and 57.5 μg/gm and 331.5 μg/gm
Sputum Tobramycin Concentrations (clinical; Sidestream, baseline): bql (<20 μg/gm) and bqi
Sputum Tobramycin Concentrations, Mean/Std Dev (clinical; mean, Pari LC, 300 mg, 1 hour): 186.8 μg/gm
Sputum Tobramycin Concentrations, Mean/Std Dev (clinical; mean, Pari LC, 300 mg, 2 hours): 131.8 μg/gm
Sputum Tobramycin Concentrations, Mean/Std Dev (clinical; mean, Pari LC, baseline): bql (<20 μg/gm)
Sputum Tobramycin Concentrations, Mean/Std Dev (clinical; mean, Sidestream, 300 mg, 10 min): 527.21 ± 585.9 μg/gm
Sputum Tobramycin Concentrations, Mean/Std Dev (clinical; mean, Sidestream, 300 mg, 1 hour): 488.2 μg/gm
Sputum Tobramycin Concentrations, Mean/Std Dev (clinical; mean, Sidestream, 300 mg, 2 hours): 331.5 μg/gm
Sputum Tobramycin Concentrations, Mean/Std Dev (clinical; mean, Sidestream, baseline): bql (<20 μg/gm)

NNC(=O)c1ccncc1 [isoniazid]
persistence of bactericidal activity ([8]; FIG. 4): only temporary
day growth of the bacteria resumed ([8]; isoniazid 0.06 μg/mL): 4 days
day of initial sharp killing ([8]; isoniazid 0.06 μg/mL): 4 days
day growth of the bacteria resumed ([8]; isoniazid 0.25 μg/mL): 7 days
day of initial sharp killing ([8]; isoniazid 0.25 μg/mL): 1 days
